What was measured:
CDK9/CyclinK kinase = target: T1, CDK9/CyclinK kinase (Homo sapiens, UniProt P50750); test: CDK9 protein kinase activity, ADP-Glo CDK9/CyclinK kinase detection kit; format: biochemical; settings: read-out: IC50 of the compound for inhibiting CDK9 protein kinase activity, CDK9/CyclinK kinase
T1 construct: purchased Promega Corporation V4105
Procedure: Measurement of CDK9 Protein Kinase Activity
The present compound was dissolved in DMSO (Sigma Aldrich), and the initial concentration of the compound was 1000 nM. A two-fold serial dilution was carried out. The specific operation of CDK9 kinase activity determination was carried out according to the ADP-Go™ CDK9/CyclinK kinase detection experimental procedure. […] Each test sample was tested in duplicate, and the test was repeated once. The inhibitory activity (IC50) of the compound on CDK9 protein kinase was calculated from the dose-inhibition curve of the compound.

MOLM13 cells = test: Growth inhibition of CDK9-positive cell line MOLM13 in vitro (CCK8/MTT assay); format: cell-based, human; settings: Homo sapiens, MOLM-13; MOLM13 cells, cultured 3 to 6 days, CCK8; read-out: IC50 of the compound for inhibiting cell growth, MOLM13 cells

T1 sequence (P50750 whole entry): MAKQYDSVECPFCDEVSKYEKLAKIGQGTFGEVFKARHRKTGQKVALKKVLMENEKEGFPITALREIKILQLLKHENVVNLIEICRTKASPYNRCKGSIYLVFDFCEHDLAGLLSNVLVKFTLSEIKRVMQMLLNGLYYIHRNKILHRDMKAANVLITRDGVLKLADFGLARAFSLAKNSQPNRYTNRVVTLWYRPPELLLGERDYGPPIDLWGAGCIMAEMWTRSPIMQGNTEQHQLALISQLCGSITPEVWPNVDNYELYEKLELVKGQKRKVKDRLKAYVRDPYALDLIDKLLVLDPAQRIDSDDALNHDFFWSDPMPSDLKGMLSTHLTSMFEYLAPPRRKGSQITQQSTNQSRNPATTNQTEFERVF
T1 sequence (O75909 whole entry partner): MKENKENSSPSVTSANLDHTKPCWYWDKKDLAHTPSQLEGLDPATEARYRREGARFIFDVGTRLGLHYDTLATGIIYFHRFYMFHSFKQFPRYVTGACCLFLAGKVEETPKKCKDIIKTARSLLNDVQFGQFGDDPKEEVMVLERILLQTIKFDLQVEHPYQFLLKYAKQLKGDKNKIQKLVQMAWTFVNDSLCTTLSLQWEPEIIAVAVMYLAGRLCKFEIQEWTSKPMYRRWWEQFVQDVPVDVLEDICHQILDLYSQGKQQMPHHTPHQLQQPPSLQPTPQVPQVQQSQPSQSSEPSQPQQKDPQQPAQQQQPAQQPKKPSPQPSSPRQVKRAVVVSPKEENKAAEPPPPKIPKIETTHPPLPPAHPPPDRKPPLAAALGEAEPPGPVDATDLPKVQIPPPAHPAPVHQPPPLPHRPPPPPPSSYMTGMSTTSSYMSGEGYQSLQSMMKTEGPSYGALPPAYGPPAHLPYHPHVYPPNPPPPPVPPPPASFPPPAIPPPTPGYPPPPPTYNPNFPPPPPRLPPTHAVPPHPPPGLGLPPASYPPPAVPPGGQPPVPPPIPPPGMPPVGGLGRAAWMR

NC(=O)c1cn(-c2nc(Nc3cccc(N4CCN(C(=O)N5CCOCC5)CC4)c3)ncc2F)c2ccccc12 [Compound 167, 1-(5-fluoro-2-{3-[4-(morpholin-4-carbonyl)-piperazin-1-yl]-phenylamino}-pyrimidin-4-yl)-1H-indole-3-carboxamide]
IC50 (CDK9/CyclinK kinase): < 1 nM
IC50 (MOLM13 cells): < 1 nM
